{"source": "patent US20230279020A9", "about": "“CARM1 INHIBITORS AND USES THEREOF” (Epizyme, Inc., priority 2013, published 2023)", "note": "pIC50: −log10 of the molar value."}
{"molecular_target": "Human CARM1 (PRMT4) (Homo sapiens (Human), UniProt Q86X55)", "sequence (Q86X55 other isoform, or with tags, fused parts or gaps isoform Q86X55-1)": "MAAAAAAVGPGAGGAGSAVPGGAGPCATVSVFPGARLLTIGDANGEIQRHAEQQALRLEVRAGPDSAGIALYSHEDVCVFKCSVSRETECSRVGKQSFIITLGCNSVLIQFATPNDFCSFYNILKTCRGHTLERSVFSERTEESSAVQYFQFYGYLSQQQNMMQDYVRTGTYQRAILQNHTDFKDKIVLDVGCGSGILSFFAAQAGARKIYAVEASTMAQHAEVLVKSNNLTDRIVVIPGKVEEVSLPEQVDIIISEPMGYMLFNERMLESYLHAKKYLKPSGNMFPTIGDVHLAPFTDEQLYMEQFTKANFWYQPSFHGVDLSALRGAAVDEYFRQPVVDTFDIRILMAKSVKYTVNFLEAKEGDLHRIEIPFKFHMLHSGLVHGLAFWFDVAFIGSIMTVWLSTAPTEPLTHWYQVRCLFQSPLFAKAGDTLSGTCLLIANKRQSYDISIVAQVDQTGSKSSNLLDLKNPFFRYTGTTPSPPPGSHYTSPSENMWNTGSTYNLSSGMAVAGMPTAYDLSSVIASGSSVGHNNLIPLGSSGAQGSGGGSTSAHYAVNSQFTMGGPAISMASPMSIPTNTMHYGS", "assay": "CARM1 enzyme assay on peptide substrate (3H-SAM Flashplate)", "conditions": "Biochemical potencies, classification codes; read-out: Biochem IC50"}
{"smiles": "CNCC(O)COc1cccc(-c2nc(NC3CCN(C4COC4)C3)c(C)c(-c3c(C)noc3C)n2)c1", "note": "(stereo not drawn) [Example 240-1a]", "pIC50": "> 7.00"}
{"smiles": "CCO[C@@H]1CCC[C@H]1Nc1nc(-c2cc(OC[C@H](O)CNC)ccc2Cl)nc(-c2c(C)noc2C)c1C", "note": "[Example 240-3]", "pIC50": "> 7.00"}
{"smiles": "CNCC(O)COc1cccc(-c2nc(NC3CCCC3)c(C)c(-c3c(C)noc3C)n2)c1", "note": "(stereo not drawn) [Example 241-1a]", "pIC50": "> 7.00"}
{"smiles": "CCO[C@@H]1CCC[C@H]1N(CC)c1nc(-c2cc(OC[C@H](O)CNC)ccc2Cl)nc(-c2c(C)noc2C)c1C", "note": "[Example 241-3]", "pIC50": "> 7.00"}
{"smiles": "CNCC(O)COc1cccc(-c2nc(NC3C[C@H]4CC[C@@H](C3)N4C(=O)OC)c(C)c(-c3c(C)noc3C)n2)c1", "note": "(stereo partly drawn) [Example 242-1a]", "pIC50": "> 7.00"}
{"smiles": "CCO[C@H]1CCC[C@H]1Nc1nc(-c2cc(OC[C@H](O)CNC)ccc2Cl)nc(-c2c(C)noc2C)c1C", "note": "[Example 242-3]", "pIC50": "> 7.00"}
{"smiles": "CNCC(O)COc1cccc(-c2nc(NC3CCN(C(=O)C4CC4)C3)c(C)c(-c3c(C)noc3C)n2)c1", "note": "(stereo not drawn) [Example 243-1a]", "pIC50": "> 7.00"}
{"smiles": "CNC[C@@H](O)COc1ccc(Cl)c(-c2nc(-c3c(C)noc3C)c(Cl)c(N3Cc4nc(C)sc4C3)n2)c1", "note": "[Example 243-3]", "pIC50": "> 7.00"}
{"smiles": "CNCC(O)COc1cccc(-c2nc(NC3CCN(C(=O)N(C)C)CC3)c(C)c(-c3c(C)noc3C)n2)c1", "note": "(stereo not drawn) [Example 244-1a]", "pIC50": "> 7.00"}
{"smiles": "CNC[C@@H](O)COc1ccc(F)c(-c2nc(-c3c(C)noc3C)c(C)c(N3Cc4cc(OC)cnc4C3)n2)c1", "note": "[Example 244-3]", "pIC50": "> 7.00"}
{"smiles": "CNCC(O)COc1cccc(-c2nc(NC3CCN(C(=O)C4CC4)CC3)c(C)c(-c3c(C)noc3C)n2)c1", "note": "(stereo not drawn) [Example 245-1a]", "pIC50": "> 7.00"}
{"smiles": "CNC[C@@H](O)COc1ccc(Cl)c(-c2nc(-c3c(C)noc3C)c(C)c(N3Cc4cnc(C)nc4C3)n2)c1", "note": "[Example 245-3]", "pIC50": "> 7.00"}
{"smiles": "CNCC(O)COc1cccc(-c2nc(NC3CCCN(C4COC4)C3)c(C)c(-c3c(C)noc3C)n2)c1", "note": "(stereo not drawn) [Example 246-1a]", "pIC50": "> 7.00"}
{"smiles": "CNC[C@@H](O)COc1ccc(Cl)c(-c2nc(-c3c(C)noc3C)c(C)c(N3CC4(CCC4)C3)n2)c1", "note": "[Example 246-3]", "pIC50": "> 7.00"}
{"smiles": "CNCC(O)COc1cccc(-c2nc(NC3CCCN(C(=O)C4CC4)C3)c(C)c(-c3c(C)noc3C)n2)c1", "note": "(stereo not drawn) [Example 247-1a]", "pIC50": "> 7.00"}
{"smiles": "CNC[C@@H](O)COc1ccc(C(F)(F)F)c(-c2nc(-c3c(C)noc3C)c(C)c(N3Cc4cncnc4C3)n2)c1", "note": "[Example 247-3]", "pIC50": "> 7.00"}
{"smiles": "CNCC(O)COc1cccc(-c2nc(NCC3CCN(C(=O)N(C)C)CC3)c(C)c(-c3c(C)noc3C)n2)c1", "note": "(stereo not drawn) [Example 248-1a]", "pIC50": "> 7.00"}
{"smiles": "CNC[C@@H](O)COc1ccc(Cl)c(-c2nc(-c3c(C)noc3C)c(C)c(N3Cc4cc(Br)cnc4C3)n2)c1", "note": "[Example 248-3]", "pIC50": "> 7.00"}
{"smiles": "CNCC(O)COc1cccc(-c2nc(NCC3CCN(C(=O)C4CC4)CC3)c(C)c(-c3c(C)noc3C)n2)c1", "note": "(stereo not drawn) [Example 249-1a]", "pIC50": "> 7.00"}
{"smiles": "CNC[C@@H](O)COc1ccc(Cl)c(-c2nc(-c3c(C)noc3C)cc(N3CC4(CCOCC4)C3)n2)c1", "note": "[Example 249-3]", "pIC50": "> 7.00"}
{"smiles": "CNCC(O)COc1cccc(-c2nc(N[C@@H]3CCC[C@@H]3O)c(C)c(-c3c(C)noc3C)n2)c1", "note": "(stereo partly drawn) [Example 250-1a]", "pIC50": "> 7.00"}
{"smiles": "CNC[C@@H](O)COc1ccc(Cl)c(-c2nc(-c3c(C)noc3C)cc(N3Cc4cnn(C)c4C3)n2)c1", "note": "[Example 250-3]", "pIC50": "> 7.00"}
{"smiles": "CNCC(O)COc1cccc(-c2nc(-c3c(C)noc3C)c(C)c(N3CCC4(CC3)CN(C(=O)OC)C4)n2)c1", "note": "(stereo not drawn) [Example 251-1a]", "pIC50": "> 7.00"}
{"smiles": "CNC[C@@H](O)COc1ccc(Cl)c(-c2nc(-c3c(C)noc3C)cc(N3Cc4nccnc4C3)n2)c1", "note": "[Example 251-3]", "pIC50": "> 7.00"}
{"smiles": "CNCC(O)COc1cccc(-c2nc(-c3c(C)noc3C)c(C)c(N3CCC4(CC3)CN(C(=O)N(C)C)C4)n2)c1", "note": "(stereo not drawn) [Example 252-1a]", "pIC50": "> 7.00"}
{"smiles": "CNC[C@@H](O)COc1ccc(Cl)c(-c2nc(-c3c(C)noc3C)c(C)c(N3Cc4nn(C)c(C)c4C3)n2)c1", "note": "[Example 252-3]", "pIC50": "> 7.00"}
{"smiles": "CCS(=O)(=O)N1CC2(CCN(c3nc(-c4cccc(OCC(O)CNC)c4)nc(-c4c(C)noc4C)c3C)CC2)C1", "note": "(stereo not drawn) [Example 253-1a]", "pIC50": "> 7.00"}
{"smiles": "CCO[C@@H]1CCC[C@@H]1Nc1nc(-c2cc(OC[C@H](O)CNC)ccc2Cl)nc(-c2c(C)noc2C)c1C", "note": "[Example 253-3]", "pIC50": "> 7.00"}
{"smiles": "CNCC(O)COc1cccc(-c2nc(N[C@H]3C[C@H](O)C3)c(C)c(-c3c(C)noc3C)n2)c1", "note": "(stereo partly drawn) [Example 254-1a]", "pIC50": "> 7.00"}
{"smiles": "CCO[C@@H]1CCC[C@@H]1N(CC)c1nc(-c2cc(OC[C@H](O)CNC)ccc2Cl)nc(-c2c(C)noc2C)c1C", "note": "[Example 254-3]", "pIC50": "> 7.00"}
{"smiles": "CNCC(O)COc1cccc(-c2nc(N[C@H]3C[C@@](C)(O)C3)c(C)c(-c3c(C)noc3C)n2)c1", "note": "(stereo partly drawn) [Example 255-1a]", "pIC50": "> 7.00"}
{"smiles": "CCO[C@H]1CCC[C@H]1N(CC)c1nc(-c2cc(OC[C@H](O)CNC)ccc2Cl)nc(-c2c(C)noc2C)c1C", "note": "[Example 255-3]", "pIC50": "> 7.00"}
{"smiles": "CNCC(O)COc1cccc(-c2nc(N[C@H]3C[C@@H](O)C3)c(C)c(-c3c(C)noc3C)n2)c1", "note": "(stereo partly drawn) [Example 256-1a]", "pIC50": "> 7.00"}
{"smiles": "CNCC(O)COc1cccc(-c2nc(NC3CCOCC3)c(C)c(-c3c(CO)noc3C)n2)c1", "note": "(stereo not drawn) [Example 256-3]", "pIC50": "> 7.00"}
{"smiles": "CNC[C@@H](O)COc1ccc(Cl)c(-c2nc(N[C@@H]3CCO[C@@H](C)C3)c(C)c(-c3c(C)noc3C)n2)c1", "note": "[Example 257-3]", "pIC50": "> 7.00"}
{"smiles": "CNCC(O)COc1cccc(-c2nc(NC[C@H]3COCCN3C(=O)N(C)C)c(C)c(-c3c(C)noc3C)n2)c1", "note": "(stereo partly drawn) [Example 258-1a]", "pIC50": "> 7.00"}
{"smiles": "CNC[C@@H](O)COc1ccc(Cl)c(-c2nc(NC3CCN(C)CC3(F)F)c(C)c(-c3c(C)noc3C)n2)c1", "note": "(stereo partly drawn) [Example 258-3]", "pIC50": "> 7.00"}
{"smiles": "CNCC(O)COc1cccc(-c2nc(OCC3CCN(C(=O)OCc4ccccc4)CC3)c(C)c(-c3c(C)noc3C)n2)c1", "note": "(stereo not drawn) [Example 259-1a]", "pIC50": "> 7.00"}
{"smiles": "CNC[C@@H](O)COc1ccc(Cl)c(-c2nc(-c3c(C)noc3C)c(C)c(N3Cc4cnc(C5CC5)nc4C3)n2)c1", "note": "[Example 259-3]", "pIC50": "> 7.00"}
{"smiles": "CNCC(O)COc1cccc(-c2nc(N[C@@H]3CCN(C4CC4)C[C@@H]3F)c(C)c(-c3c(C)noc3C)n2)c1", "note": "(stereo partly drawn) [Example 260-1a]", "pIC50": "> 7.00"}
{"smiles": "CNC[C@@H](O)COc1ccc(F)c(-c2nc(-c3c(C)noc3C)c(C)c(N3Cc4cncnc4C3)n2)c1", "note": "[Example 260-3]", "pIC50": "> 7.00"}
{"smiles": "CNCC(O)COc1cccc(-c2nc(N[C@@H]3CCN(C4CC4)C[C@H]3F)c(C)c(-c3c(C)noc3C)n2)c1", "note": "(stereo partly drawn) [Example 261-1a]", "pIC50": "> 7.00"}
{"smiles": "CNC[C@@H](O)COc1ccc(Cl)c(-c2nc(-c3c(C)noc3C)c(F)c(N3CC4(CCOCC4)C3)n2)c1", "note": "[Example 261-3]", "pIC50": "> 7.00"}
{"smiles": "CNCC(O)COc1cccc(-c2nc(NCC3CCN(C4COC4)CC3)c(C)c(-c3c(C)noc3C)n2)c1", "note": "(stereo not drawn) [Example 262-1a]", "pIC50": "> 7.00"}
{"smiles": "CNCC(O)COc1cccc(-c2nc(NC3CCN(C4COC4)CC3)c(C)c(-c3c(C)noc3C)n2)c1", "note": "(stereo not drawn) [Example 263-1a]", "pIC50": "> 7.00"}
{"smiles": "CNC[C@@H](O)COc1ccc(Cl)c(-c2nc(-c3c(C)noc3C)c(C)c(N3Cc4cnc(C(F)(F)F)nc4C3)n2)c1", "note": "[Example 263-3]", "pIC50": "> 7.00"}
{"smiles": "CNCC(O)COc1cccc(-c2nc(NC3CN(C(=O)C4CC4)C3)c(C)c(-c3c(C)noc3C)n2)c1", "note": "(stereo not drawn) [Example 264-1a]", "pIC50": "> 7.00"}
{"smiles": "CNC[C@@H](O)COc1ccc(Cl)c(-c2nc(-c3c(C)noc3C)c(C)c(N3Cc4cnc(C(C)C)nc4C3)n2)c1", "note": "[Example 264-3]", "pIC50": "> 7.00"}
